For series [1], the target named is CDC7/DBF4 (Cell division cycle 7-related protein kinase/Activator of S phase kinase) (Homo sapiens, UniProt O00311). The series can be described thus: Inhibition of recombinant human Cdc7 (1 to 574 residues)/human N-terminal GST-tagged DBF4 (1 to 674 residues) expressed in baculovirus expression system using His-tagged MCM2 as substrate preincubated for 10 mins followed by ATP addition by HTRF assay. A general note: TR-FRET usually uses a lanthanide donor and a delayed reading to cut background.

The target of series [2] is Rho-associated protein kinase 1 (Homo sapiens, UniProt Q13464). The series can be described thus: Inhibition of recombinant human N-terminal GST-tagged ROCK1 (1 to 477 residues) expressed in baculovirus expression system using biotin-STK substrate-2 as substrate preincubated for 5 mins followed by ATP addition after 2 hrs by TR-FRET assay.
For series [3], the target named is Cyclin-dependent kinase 2/cyclin E1 (Homo sapiens, UniProt P24941). The series is described as follows: Inhibition of recombinant human Cdk2 (1 to 298 residues)/human N-terminal GST-tagged cyclinE (1 to 410 residues) expressed in baculovirus expression system using histone H1 as substrate after 90 mins in presence of ATP by kinase-glo assay. In general terms: In Kinase-Glo more light means more ATP remaining.

Series [4] addresses Cell division cycle 7-related protein kinase (Homo sapiens, UniProt O00311). The series can be described thus: Inhibition of Cdc7 in human HeLa cells assessed as reduction in MCM2 phosphorylation at ser40 residues after 7 hrs by Western blot analysis. It is filed as cell-based. On the technique in general: Immunoblotting shows a protein as a band on a membrane.
A short description of series [5]: Solubility of the compound. Type of series: physicochemical.
A further series deals with COLO 205. The series is described as follows: Cytotoxicity against human COLO205 cells after 3 days by CellTiter-Glo luminescent cell viability assay. As to conditions: COLO 205, 72 h. Type of series: functional, cell-based.

As usually defined, the IC50 is the concentration that inhibits the measured activity by half. By EC50 is commonly meant the concentration needed to bring the measured effect to its halfway point. A high value points to a less potent agent. As for `Cc1n[nH]cc1-c1cc2c(s1)C(=O)N[C@]1(CC[C@](O)(c3ccc(F)cc3)CC1)N2`, the IC50 was 0.0012 µM in series [1], 0.82 µM in series [2], 0.96 µM in series [3] and over 1 µM in series [4]. In addition, in series [5], the solubility entry is “Soluble”. This compound registered an EC50 in the series on COLO 205 of 4.5 µM.
For `CC1(C)NC(=O)c2cc(-c3ccncc3)sc2N1`, the values for the IC50 in series [1] and in series [2] were 0.14 µM and 0.1 µM, respectively.
For `CCCC1(C)NC(=O)c2sc(-c3ccncc3)cc2N1` (stereo not given), the IC50 came out at 0.0063 µM in series [1], 0.033 µM in series [2] and 2 µM in series [3].
As for `CN1C(=O)c2sc(-c3ccncc3)cc2NC1(C)C`, the values for the half-maximal inhibitory concentration (IC50) in series [1], in series [2] and in series [3] were 0.45 µM, 0.24 µM and over 10 µM, respectively.
With `CC1(C)Nc2cc(-c3ccncc3)sc2C(=O)N1Cc1ccccc1`, the half-maximal inhibitory concentration (IC50) in series [1] is over 10 µM; in series [2], 0.0015 µM; in series [3], 0.65 µM.
Turning to `CCC1(C)NC(=O)c2sc(-c3ccncc3)cc2N1` (stereo not given), the IC50 is 0.0075 µM in series [1], 0.036 µM in series [2] and 2 µM in series [3].
Turning to `CN1c2c(sc(-c3cn[nH]c3)c2Br)C(=O)NC1(C)C`, the half-inhibitory concentration (IC50) was 0.0095 µM in series [1], 0.022 µM in series [2] and 0.026 µM in series [3].
Taken in the same sequence, the figures for `Cc1n[nH]cc1-c1cc2c(s1)C(=O)NC(C)(C)N2C` were 0.0029 µM, 0.054 µM and 0.26 µM.
Consider `NC(=O)c1sc(-c2ccncc2)cc1N`, for which the IC50 in series [1] is 1.2 µM.
`CN1c2cc(-c3ccncc3)sc2C(=O)NC1(C)C`: the figures for the IC50 in series [1], in series [2] and in series [3] were 0.0099 µM, 0.14 µM and 2.1 µM, respectively.
On to `CCc1n[nH]cc1-c1cc2c(s1)C(=O)NC(C)(C)N2C`, for which the figures for the concentration for half-maximal inhibition (IC50) in series [1], in series [2] and in series [3] were 0.013 µM, 0.35 µM and 0.36 µM, respectively.
Regarding `O=C1NC2(CCCCCC2)Nc2cc(-c3ccncc3)sc21`, the half-inhibitory concentration (IC50) in series [1] is 0.0036 µM; in series [2], 0.037 µM; in series [3], 2.3 µM.
For `Cc1n[nH]cc1-c1cc2c(s1)C(=O)N[C@]1(CC[C@](O)(C3CCCCC3)CC1)N2`, the half-inhibitory concentration (IC50) in series [1] was 0.002 µM; in series [2], 2.9 µM; in series [3] it was 2.2 µM; in series [4], over 1 µM. In series [5], the solubility entry is recorded as “Soluble”. Moreover, in the series on COLO 205, the EC50 came to 6.2 µM.
Regarding `O=c1[nH]c(=O)c2sc(-c3ccncc3)cc2[nH]1`, in series [1], the IC50 was determined as 0.69 µM.
Consider `CC1(CC(F)(F)F)NC(=O)c2sc(-c3ccncc3)cc2N1` (stereo not given), for which the figures for the IC50 in series [1], in series [2] and in series [3] were 0.0027 µM, 0.031 µM and 1.2 µM, respectively.
On to `Cc1n[nH]c(C)c1-c1cc2c(s1)C(=O)NC(C)(C)N2C`, for which the values for the half-maximal inhibitory concentration (IC50) in series [1], in series [2] and in series [3] were 0.29 µM, 2.1 µM and 1.1 µM, respectively.
For the compound `CC1(C)NC(=O)c2sc(-c3ccncc3)cc2N1`, the figures for the IC50 in series [1], in series [2] and in series [3] were 0.026 µM, 0.09 µM and 3.2 µM, respectively.
`Cc1c(-c2cn[nH]c2)sc2c1N(C)C(C)(C)NC2=O`: the figures for the IC50 in series [1], in series [2] and in series [3] were 0.014 µM, 0.044 µM and 0.026 µM, respectively.
For `CC(C)C1(C)NC(=O)c2sc(-c3ccncc3)cc2N1` (stereo not given) the same measures were 0.0082 µM, 0.035 µM and 1.4 µM.
As for `Cc1n[nH]cc1-c1cc2c(s1)C(=O)N[C@]1(CC[C@@](O)(C3CCCCC3)CC1)N2`, the half-maximal inhibitory concentration (IC50) in series [1] is 0.38 µM; in series [2] it was 0.35 µM; in series [3], over 10 µM.
For `Cc1n[nH]cc1-c1cc2c(s1)C(=O)N[C@]1(CC[C@@](O)(c3ccc(F)cc3)CC1)N2`, the IC50 is 0.17 µM in series [1], 0.13 µM in series [2] and over 10 µM in series [3].
As to `Cc1n[nH]cc1-c1cc2c(s1)C(=O)NC1(CCCCC1)N2`, the half-maximal inhibitory concentration (IC50) was found to be 0.0015 µM in series [1], 0.048 µM in series [2], 1.3 µM in series [3] and 0.29 µM in series [4]. Besides, the solubility result in series [5] is given as “Soluble”. The midpoint of the response in the series with COLO 205, the EC50, lay at 0.47 µM.
With `O=C1NC2(CCCCC2)Nc2cc(-c3ccncc3)sc21`, the figures for the half-maximal inhibitory concentration (IC50) in series [1], in series [2] and in series [3] were 0.003 µM, 0.053 µM and 2 µM, respectively.
With `O=C1NC2(CCCC2)Nc2cc(-c3ccncc3)sc21`, the values for the concentration for half-maximal inhibition (IC50) in series [1], in series [2] and in series [3] were 0.0082 µM, 0.1 µM and 4.9 µM, respectively.
Turning to `Cc1n[nH]cc1-c1cc2c(s1)C(=O)NC(C)(CC(F)(F)F)N2C` (stereo not given), the 50% inhibitory concentration (IC50) in series [1] worked out at 0.001 µM; in series [2] it was 0.022 µM; in series [3], 0.42 µM; in series [4] it was 0.21 µM. Besides, the solubility entry in series [5] was “Soluble”. Moreover, the EC50 with COLO 205 is 0.33 µM.
Regarding `CN1c2cc(-c3cn[nH]c3)sc2C(=O)NC1(C)C`, the half-inhibitory concentration (IC50) in series [1] stood at 0.0084 µM; in series [2] it was 0.13 µM; in series [3] it was 0.16 µM.
